Where a name gives a salt, the structure may show the parent alone. Read-outs that look alike come from different tables or passages of the source.
Legend:
[1] = tested on: subgenomic RNA-replicon HCV (genotype 1b (gT1b), don Con1); assay: Antiviral activity in Huh7 HCV subgenomic replicon cells, immunoenzymatic assay (IEA); format: cell-based, hepatitis C virus; conditions: Huh7 cells with HCV gT1b replicon, 3 days incubation
Protocol: Antiviral activity of substituted azoles of the general formula 1 was determined in the human hepatoma cell line Huh7, comprising subgenomic RNA-replicon HCV (genotype 1b (gT1b), don Con1). A version of immumoenzymatic assay (IEA) on viral protein NS5A in 96-well plate was used as an experimental method. Cytotoxicity of the compounds was estimated in parallel regime. Cells Huh7 were seeded in 96-well plate (7.5×10^3 cells to each well in 100 μl of culture medium). Solutions of the tested compounds in DMEM medium {DMEM) 1×; Source: Cellgro; Catalogue: 10-013-CV} were prepared immediately before use. Eleven serial three fold dilutions with variation of concentrations from 20 nM to 0.2 pM were prepared. In 4 hours after seeding, serial dilutions of the compounds were added to the cells (100 μl to each well). Final concentration of tested compounds was varied from 10 nM to 0.1 pM, and DMSO—0.5%. If it was necessary, higher concentrations of the disclosed azoles were investigated. Each dilution of the compound was tested on two identical wells. Then the cells were incubated for three days at 37° C./5% CO2 and fixed by addition of acetone/methanol (1:1) mixture in amount of 250 μl/well. In 1 min the cells were washed 3 times with PBS (Phosphate Buffered Saline) solution. Then the cells were blocked by addition of 10% fetal calf serum in PBS solution in amount of 150 μl/well for 1 h at room temperature. Then, the cells were incubated with mouse monoclonal antibodies to cor-antigen HCV, don C7-50 (Source: Affinity BioReagents; Catalogue: MA1-080) (100 μl/well, working dilution—1:500 in 10% fetal calf serum in PBS solution) for 2 h at 37° C. The cells were washed 6 times with PBS/0.05% Tween 20 solution, then, they were incubated for 1 h with goat anti-mouse immunoglobulin antibodies (conjugated with horseradish peroxidase, 100 μl/well, working dilution—1:2500 in 10% fetal calf serum in PBS solution). The cells were washed 6 times with PBS/0.05% Tween 20 solution, once with PBS solution, after that substrate (1 tablet of o-phenylenediamine (oPD)+12 ml citrate/phosphate buffer+5 μl 30% H2O2) in amount of 100 μl/well was added. The plates were kept for 30 min in the dark at room temperature. The reaction was arrested by the addition of 2N H2SO4 in amount of 100 μl/well, and optical density (wavelength 490 nm) was measured by means of multiscan plate reader Victor3 V 1420 (Perkin Elmer). IC50 values (azole concentration, lowering the level of virus RNA-replicon on 50%) for every tested azole were calculated with the help of XLfit 4 program.

[2] = Cytotoxicity in Huh7 cells (ATPLite); format: cell-based, human; conditions: human, Huh7 cells (human hepatoma cell line), 96 h incubation, read-out: CC50, nM (gT1b)
Protocol: (§1) Cytotoxicity of the disclosed azoles was tested in experiments in the human hepatoma cell line Huh7. The amount of living cells was determined with the help of ATPLite kit (Perkin Elmer, Boston, USA) in accordance with manufacturer instructions. Cytotoxic action was estimated by seeding the cells into black microplate with transparent bottom (96 wells, 10^4 cells to each well). Three independent repeatings were used for each bis-azole. The tested bis-azoles were added in 18 h, after that the cells were incubated together with the compounds for 96 h. Each well was washed two times with phosphate buffered saline (0.2 ml/well) and then the cells were lysed by addition of cell buffer (50 μl/well) (all mentioned reagents are included in ATPLite kit). The microplate was incubated for 5 min on a rotating platform at 600 r/min, after that 50 μl of substrate solution (a part of ATPLite kit) was added into each well. The microplate was incubated for additional 5 min on a rotating platform at 600 r/min, kept for 10 min in the dark, after that luminescence was measured using TopCount NXT instrument (Packard, Perkin Elmer).
(§2) CC50 Value corresponding to bis-azole concentration at which 50% of cells were ruined was used as quantitative characteristic for cytotoxicity estimation. Calculation of CC50 value: for calculation of inhibition effectiveness (% Inh) the following equation was used: % Inh=[(L^pos−L^ex)/L^pos−L^neg)]*100%, where L^pos—positive control, luminescence in the wells with cells without compounds; L^neg—negative control, luminescence in the wells with medium without cells; L^ex—luminescence in wells with a compound of definite concentration. Then, CC50 values were calculated with the help of XLfit 4 program. Test results for novel azoles of the general formula 1 testify their high (nanomolar) or very high (picomolar) activity.

[3] = tested on: human hepatoma cell line Huh7; assay: Cytotoxicity in Huh7 cells (ATPLite); format: cell-based; conditions: 96 h incubation, read-out: CC50, nM (gT1b)
Protocol: as §1, §2

Compound | IC50 ([1]; Hepatitis C virus, Huh-7, 72 h) [nM] | CC50 at 96 h [2] [nM] | IC50 [1] [nM] | CC50 [3] [nM] | also measured
COC(=O)N[C@H](C(=O)N1CCC[C@H]1c1nc(C#CC#Cc2ccc(-c3c[nH]c([C@@H]4CCCN4C(=O)[C@@H](NC(=O)OC)C(C)C)n3)s2)c[nH]1)C(C)C [1.9•2HCl, [(S)-1-((S)-2-{4-[4-(5-{2-[(S)-1-((S)-2-Methoxycarbonylamino-3-methyl-butyryl)-pyrrolidin-2-yl]-1H-imidazol-4-yl}-thiophen-2-yl)-buta-1,3-diynyl]-1H-imidazol-2-yl}-pyrrolidine-1-carbonyl)-2-methyl-propyl]-carbamic acid methyl ester dihydrochloride] | 0.0032 | > 10000 |  |  | 
COC(=O)N[C@H](C(=O)N1CCC[C@H]1c1ncc(-c2ccc(C#CC#Cc3cnc([C@@H]4CCCN4C(=O)[C@@H](NC(=O)OC)C(C)C)[nH]3)cc2)[nH]1)c1ccccc1 [1.3•2HCl, Methyl (5)-[(S)-2-(5-{4-[4-(2-{(S)-1-[(S)-2-(methoxycarbonylamino)-3-methylbutanoyl]pyrrolidin-2-yl}-3H-imidazol-4-yl)buta-1,3-diynyl]phenyl}-1H-imidazol-2-yl)pyrrolidin-1-yl]-2-oxo-1-phenylethylcarbamate dihydrochloride] |  |  | 0.0054 | > 10000 | 
COC(=O)N[C@H](C(=O)N1CCC[C@H]1c1ncc(C#CC#Cc2ccc(-c3cnc([C@@H]4CCCN4C(=O)[C@@H](NC(=O)OC)C(C)C)[nH]3)c3ccccc23)[nH]1)C(C)C [1.8•2HCl, Methyl [(S)-1-((S)-2-{5-[4-(4-{2-[(S)-1-((S)-2-methoxycarbonylamino-3-methyl-butyryl)-pyrrolidin-2-yl]-3H-imidazol-4-yl}-buta-1,3-diynyl)-naphthalen-1-yl]-1H-imidazol-2-yl}-pyrrolidine-1-carbonyl)-2-methyl-propyl]-carbamate dihydrochloride] | 0.0048 | > 10000 |  |  | 
COC(=O)N[C@H](C(=O)N1CCC[C@H]1c1ncc(C#CC#Cc2ccc(-c3cnc([C@@H]4CCCN4C(=O)[C@@H](NC(=O)OC)C(C)C)[nH]3)cc2)[nH]1)C(C)C [1.1•2HCl, [(1S)-1-[[(2S)-2-[5-[4-[4-[2-[(2S)-1-[(2S)-2-[(Methoxycarbonyl)amino]-3-methyl-1-oxobutyl]-2-pyrrolidinyl]-1H-imidazol-5-yl]-1,3-butadiynyl]phenyl]-1H-imidazol-2-yl]-1-pyrrolidinyl]carbonyl]-2-methylpropyl]-carbamic acid methyl ester dihydrochloride] |  |  |  |  | IC50 ([1]; dihydrochloride): 0.0034 nM; CC50 ([3]; dihydrochloride): 85100 nM
Methyl (R)-[(S)-2-(5-{4-[4-(2-{(S)-1-[(S)-2-(methoxycarbonylamino)-3-methylbutanoyl]pyrrolidin-2-yl}-3H-imidazol-4-yl)buta-1,3-diynyl]phenyl}-1H-imidazol-2-yl)pyrrolidin-1-yl]-2-oxo-1-phenylethylcarbamate dihydrochloride [1.4•2HCl] |  |  | 0.0018 | > 10000 | 
Methyl (S)-[(S)-2-(5-{4-[4-(2-{(S)-1-[(S)-2-(methoxycarbonylamino)-3-methylbutanoyl]pyrrolidin-2-yl}-3H-imidazol-4-yl)buta-1,3-diynyl]phenyl}-1H-imidazol-2-yl)pyrrolidin-1-yl]-2-oxo-1-phenylethylcarbamate dihydrochloride [1.5•2HCl] |  |  | 0.0082 | > 10000 | 
COC(=O)N[C@H](C(=O)N1CCC[C@H]1c1ncc(C#CC#Cc2ccc3cc(-c4cnc([C@@H]5CCCN5C(=O)[C@@H](NC(=O)OC)C(C)C)[nH]4)ccc3c2)[nH]1)C(C)C [1.6•2HCl, Methyl [(S)-1-((S)-2-{5-[2-(4-{2-[(S)-1-((S)-2-methoxycarbonylamino-3-methyl-butyryl)-pyrrolidin-2-yl]-3H-imidazol-4-yl}-buta-1,3-diynyl)-naphthalen-6-yl]-1H-imidazol-2-yl}-pyrrolidine-1-carbonyl)-2-methyl-propyl]-carbamate dihydrochloride] | 0.0046 | > 10000 |  |  | 
COC(=O)N[C@H](C(=O)N1CCC[C@H]1c1ncc(C#CC#Cc2csc3c(-c4cnc([C@@H]5CCCN5C(=O)[C@@H](NC(=O)OC)C(C)C)[nH]4)csc23)[nH]1)C(C)C [1.10•2HCl, Methyl [(S)-1-((S)-2-{5-[6-(4-{2-[(S)-1-((S)-2-Methoxycarbonylamino-3-methyl-butyryl)-pyrrolidin-2-yl]-3H-imidazol-4-yl}-buta-1,3-diynyl)-thieno[3,2-b]thiophen-3-yl]-1H-imidazol-2-yl}-pyrrolidine-1-carbonyl)-2-methyl-propyl]-carbamate dihydrochloride] | 0.002 | > 10000 |  |  | 
COC(=O)N[C@H](C(=O)N1CCC[C@H]1c1ncc(C#CC#Cc2ccc(-c3cnc([C@@H]4CCCN4C(=O)[C@@H](NC(=O)OC)C(C)C)[nH]3)cc2)[nH]1)C(C)C [Compound 1.1, [(1S)-1-[[(2S)-2-[5-[4-[4-[2-[(2S)-1-[(2S)-2-[(methoxycarbonyl)amino]-3-methyl-1-oxobutyl]-2-pyrrolidinyl]-1H-imidazol-5-yl]-1,3-butadiynyl]phenyl]-1H-imidazol-2-yl]-1-pyrrolidinyl]carbonyl]-2-methylpropyl]-carbamic acid methyl ester] | 0.0031 |  |  | > 10000 | 
COC(=O)N[C@H](C(=O)N1CCC[C@H]1c1ncc(C#CC#Cc2cccc3c(-c4cnc([C@@H]5CCCN5C(=O)[C@@H](NC(=O)OC)C(C)C)[nH]4)cccc23)[nH]1)C(C)C [1.7•2HCl, Methyl [(S)-1-((S)-2-{5-[5-(4-{2-[(S)-1-((S)-2-methoxycarbonylamino-3-methyl-butyryl)-pyrrolidin-2-yl]-3H-imidazol-4-yl}-buta-1,3-diynyl)-naphthalen-1-yl]-1H-imidazol-2-yl}-pyrrolidine-1-carbonyl)-2-methyl-propyl]-carbamate dihydrochloride] | 0.0036 | > 10000 |  |  | 

Reference: US9428491B2, “Substituted azoles, antiviral active component, pharmaceutical composition, method for preparation and use thereof” (priority 2010, dated 2016)
